The values that follow come from ChEMBL document CHEMBL1201862, “PubChem BioAssay data set” (2004).

Among the test systems are IGROV-1; Hs-578T; MCF7; HOP-62; M14; SN12C; Malme-3M; CCRF-CEM; UO-31; SF-539; PC-3; MOLT-4; ACHN; SW-620; HT-29; RXF 393; NCI-H23; LOX IMVI; SK-OV-3; EKVX.
Holding throughout (assay): NCI tumour cell line growth inhibition, 48 h

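Step 1: Grow cells in 96-well plates. Step 2: Expose to compound for 48 hours at 5 concentrations. Step 3: Interpolate endpoints linearly; if unreached, use highest concentration. The concentration for 50% growth inhibition is given as GI50.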 Calls of active or inactive are those of the source. Cut-off read from the data, not from the text of the source: active = GI50 up to about 1.1 µM and inactive = higher.

Consider `O=C1NC(c2ccccc2Cl)Nc2ccccc21` (stereo not given), for which the GI50 with IGROV-1 was 22.5 µM (inactive); with Hs-578T it was 9.53 µM (inactive); with MCF7 it was > 65.3 µM (inactive); in the test with HOP-62, 35.4 µM (inactive); in the test on M14 it was 10.5 µM (inactive); with SN12C, 23.3 µM (inactive). The GI50 was 12.3 µM (inactive) in the test on Malme-3M; 11.4 µM (inactive) in the test on CCRF-CEM; 30.7 µM (inactive) in the test with UO-31; 7.08 µM (inactive) in the test on SF-539; 21.4 µM (inactive) with PC-3; 8.77 µM (inactive) in the test on MOLT-4. Further, the GI50 was 29.5 µM (inactive) in the test on ACHN; 3.09 µM (inactive) with SW-620; 6.67 µM (inactive) with HT-29; 15.3 µM (inactive) in the test with RXF 393; 34.2 µM (inactive) with NCI-H23; 12.5 µM (inactive) in the test on LOX IMVI. Further, the GI50 in the test with SK-OV-3 was 31 µM (inactive); with EKVX, 27.7 µM (inactive).
With `Nc1ccc2c3[nH]c4cc(N)ccc4cc-3nc2c1`, the GI50 in the test on IGROV-1 is 2.16 µM (inactive); in the test with Hs-578T it was 0.11 µM (active); in the test on MCF7, 0.069 µM (active); in the test with HOP-62 it was 0.117 µM (active); with M14, 0.344 µM (active); in the test with SN12C it was 0.138 µM (active). Moreover, the GI50 is 2.66 µM (inactive) with Malme-3M; 0.158 µM (active) with CCRF-CEM; 0.0925 µM (active) in the test on UO-31; 0.231 µM (active) in the test on SF-539; 0.224 µM (active) in the test with PC-3; 0.0789 µM (active) with MOLT-4. Also, the GI50 in the test with ACHN is 0.0236 µM (active); in the test with SW-620 it was 0.0603 µM (active); with HT-29, 0.145 µM (active); in the test on RXF 393, 0.32 µM (active); in the test on NCI-H23 it was 0.202 µM (active); with LOX IMVI it was 0.199 µM (active). In addition, the GI50 with SK-OV-3 was 0.314 µM (active); in the test with EKVX, 0.267 µM (active).
Consider `COc1cc(C/N=c2/nc(N(C)C)ss2)cc(OC)c1OC`, for which the GI50 in the test with IGROV-1 was > 10 µM (inactive); in the test on Hs-578T, > 10 µM (inactive); with MCF7, > 5.78 µM (inactive); in the test on HOP-62 it was > 10 µM (inactive); in the test on M14, > 9.1 µM (inactive); in the test with SN12C, > 10 µM (inactive). The GI50 in the test with Malme-3M is > 5.15 µM (inactive); in the test on CCRF-CEM, 0.189 µM (active); in the test on UO-31, > 10 µM (inactive); with SF-539, > 10 µM (inactive); in the test with PC-3, > 10 µM (inactive); with MOLT-4 it was 2.81 µM (inactive). Further, the GI50 in the test on ACHN was > 10 µM (inactive); with SW-620, 5.6 µM (inactive); in the test with HT-29, > 10 µM (inactive); with RXF 393, > 10 µM (inactive); in the test on NCI-H23, > 10 µM (inactive); with LOX IMVI, 2.1 µM (inactive). For the same molecule, the GI50 with SK-OV-3 and in the test with EKVX was > 10 µM (inactive) in each case.
In the case of `CN(NC1=NCCO1)c1ccc2ccccc2c1`, the GI50 is 39.7 µM (inactive) with IGROV-1; 35.2 µM (inactive) in the test on Hs-578T; 48.6 µM (inactive) in the test on MCF7; 80.7 µM (inactive) in the test on HOP-62; 36 µM (inactive) with M14; 62.8 µM (inactive) in the test with SN12C. The GI50 in the test with Malme-3M was 36.2 µM (inactive); with CCRF-CEM, 17.2 µM (inactive); in the test on UO-31, 69.5 µM (inactive); with SF-539 it was 23.6 µM (inactive); in the test with PC-3, 40.3 µM (inactive); in the test with MOLT-4, 42.2 µM (inactive). Further, the GI50 with ACHN was 62.8 µM (inactive); in the test on SW-620, 34.1 µM (inactive); in the test on HT-29 it was 41.1 µM (inactive); with RXF 393, 38.6 µM (inactive); in the test with NCI-H23, 32.1 µM (inactive); in the test with LOX IMVI it was 37.4 µM (inactive). Besides, the GI50 is 39.1 µM (inactive) in the test with SK-OV-3 and 39.5 µM (inactive) with EKVX.
As to `O=C(CCCl)NN=C1NCCCCN1`, the GI50 with IGROV-1, with Hs-578T, in the test on MCF7, in the test on HOP-62, in the test with M14 and with SN12C was > 100 µM (inactive) in each case. The GI50 in the test with Malme-3M, with CCRF-CEM, in the test with UO-31, in the test with SF-539, in the test on PC-3 and in the test with MOLT-4 was > 100 µM (inactive) in each case. Also, the GI50 in the test with ACHN, in the test with SW-620, in the test with HT-29, in the test on RXF 393, with NCI-H23 and with LOX IMVI was > 100 µM (inactive) each time. Besides, the GI50 in the test on SK-OV-3 and with EKVX was > 100 µM (inactive) in each case.
Regarding `COc1ccccc1/C=C1\CCC(CN2CCOCC2)C1=O` (stereo not given), the GI50 with IGROV-1 was 12.5 µM (inactive); in the test with Hs-578T, 10.8 µM (inactive); with MCF7, 5.14 µM (inactive); in the test on HOP-62 it was 25.5 µM (inactive); in the test on M14, 6.15 µM (inactive); in the test on SN12C, 7.5 µM (inactive). Also, the GI50 in the test with Malme-3M was 10.2 µM (inactive); in the test on CCRF-CEM, 2.56 µM (inactive); in the test with UO-31, 16.6 µM (inactive); in the test on SF-539, 15.2 µM (inactive); in the test on PC-3 it was 15.2 µM (inactive); in the test with MOLT-4, 2.32 µM (inactive). Besides, the GI50 was 16.1 µM (inactive) with ACHN; 4.16 µM (inactive) in the test with SW-620; 11 µM (inactive) in the test on HT-29; 16.8 µM (inactive) with RXF 393; 20.3 µM (inactive) with NCI-H23; 6.52 µM (inactive) with LOX IMVI. In addition, the GI50 with SK-OV-3 was > 43.7 µM (inactive); with EKVX it was 11.2 µM (inactive).
Turning to `CN(C)CCCn1c2ccccc2c2cnccc21`, the GI50 in the test with IGROV-1 was 64.7 µM (inactive); with Hs-578T, 42.7 µM (inactive); in the test on MCF7, 35.2 µM (inactive); with HOP-62, 60.4 µM (inactive); in the test with M14 it was 16.6 µM (inactive); in the test on SN12C, 17.1 µM (inactive). Moreover, the GI50 in the test with Malme-3M is 28.6 µM (inactive); in the test with CCRF-CEM, 45.7 µM (inactive); with UO-31 it was 17.5 µM (inactive); with SF-539 it was 20.6 µM (inactive); in the test with PC-3 it was 32.3 µM (inactive); in the test with MOLT-4, 24.4 µM (inactive). Besides, the GI50 in the test with ACHN was 33.8 µM (inactive); in the test with SW-620, 26.4 µM (inactive); with HT-29, 25.1 µM (inactive); in the test on RXF 393 it was 57.4 µM (inactive); in the test with NCI-H23, 39.5 µM (inactive); in the test on LOX IMVI, 24.2 µM (inactive). For the same molecule, the GI50 was 66.2 µM (inactive) with SK-OV-3 and 36.1 µM (inactive) in the test on EKVX.
In the case of `CC1=C(/C=C/C(C)=C/C=C/C(C)=C/C(=O)OC2CC(n3cc(F)c(=O)[nH]c3=O)OC2CO)C(C)(C)CCC1` (stereo not given), the GI50 is 7.13 µM (inactive) in the test on IGROV-1; 6.62 µM (inactive) in the test with Hs-578T; 0.057 µM (active) in the test with MCF7; 0.158 µM (active) with HOP-62; 1.35 µM (inactive) with M14; 4.5 µM (inactive) with SN12C. Further, the GI50 in the test with Malme-3M was 12.1 µM (inactive); in the test with CCRF-CEM, 0.374 µM (active); in the test on UO-31, 0.431 µM (active); with SF-539, 0.0577 µM (active); with PC-3, 1.99 µM (inactive); with MOLT-4, 0.2 µM (active). Moreover, the GI50 with ACHN is 0.082 µM (active); in the test with SW-620 it was 10.6 µM (inactive); with HT-29, 2.71 µM (inactive); in the test on RXF 393 it was 6.3 µM (inactive); in the test with NCI-H23 it was 2.75 µM (inactive); with LOX IMVI it was 2.15 µM (inactive). The GI50 in the test on SK-OV-3 was 2.05 µM (inactive); in the test with EKVX it was 13.9 µM (inactive).
`Cc1ccc(O)c(-c2cc(-c3cccc(Cl)c3)c(C#N)c(N)n2)c1`: the GI50 was 6.93 µM (inactive) with IGROV-1; 22.7 µM (inactive) in the test on Hs-578T; 13.5 µM (inactive) with MCF7; 20.6 µM (inactive) in the test on HOP-62; 20.9 µM (inactive) in the test with M14; 20.9 µM (inactive) in the test with SN12C. Further, the GI50 in the test on Malme-3M was 17.5 µM (inactive); in the test on CCRF-CEM it was 24.4 µM (inactive); in the test on UO-31, 18 µM (inactive); in the test with SF-539 it was 19.5 µM (inactive); with PC-3, 23.3 µM (inactive); in the test with MOLT-4 it was 12.8 µM (inactive). For the same molecule, the GI50 in the test with ACHN was 17.9 µM (inactive); in the test on SW-620, 17.2 µM (inactive); with HT-29, 25.8 µM (inactive); in the test with RXF 393 it was 19.3 µM (inactive); in the test on NCI-H23 it was 25.1 µM (inactive); with LOX IMVI, 16.7 µM (inactive). For the same molecule, the GI50 with SK-OV-3 was 21.4 µM (inactive); in the test on EKVX it was 14 µM (inactive).
Take `CN1C(=O)c2c(c3c4ccccc4n(C4OC(CO)C(O)C(O)C4O)c3c3[nH]c4ccccc4c23)C1=O` (stereo not given): the GI50 is 0.9 µM (active) with IGROV-1; 4.45 µM (inactive) with Hs-578T; 5.51 µM (inactive) in the test with MCF7; 2.93 µM (inactive) with HOP-62; 2.34 µM (inactive) with M14; 2.82 µM (inactive) in the test on SN12C. For the same molecule, the GI50 in the test on Malme-3M was 0.194 µM (active); in the test with CCRF-CEM it was 0.268 µM (active); with UO-31 it was 2.57 µM (inactive); with SF-539, 1.36 µM (inactive); in the test on PC-3 it was 1.92 µM (inactive); in the test on MOLT-4, 0.624 µM (active). Moreover, the GI50 with ACHN is 2.14 µM (inactive); with SW-620 it was 1.71 µM (inactive); in the test with HT-29 it was 3.13 µM (inactive); in the test on RXF 393, 3.55 µM (inactive); in the test with NCI-H23 it was 2.59 µM (inactive); in the test on LOX IMVI, 1.2 µM (inactive). The GI50 was 2.92 µM (inactive) in the test on SK-OV-3 and 3.02 µM (inactive) in the test on EKVX.
